Measured values published in patent publication US20240043404A1 (AbbVie Inc., priority 2009, published 2024).
pEC50: −log10 of the molar value. Read-outs that look alike come from different tables or passages of the source.

Tested on: RS4;11 cells
Experiment: RS4;11 cell viability assay (CellTiter Glo);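 further: acute lymphoblastic leukemia line RS4,11, EC50 derived from percentage of viable cells after treatment relative to untreated controls, cell killing taken as a measure of Bcl-2 inhibition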
Format: cell-based, human
Conditions: read-out: RS4
[1] = Homo sapiens, RS4-11, 48 h, 50,000 cells per well, 10% human serum, 48 hours, 11 EC50 Values

Experimental: The acute lymphoblastic leukemia (ALL) cell line RS4;11 was used as the primary human cell line to assess the cellular activity of Bcl-2 selective agents in vitro and their efficacy in vivo.
Cell cytotoxicity EC50 values were assessed using CellTiter Glo (Promega) according to the manufacturer's recommendations. The EC50 values were determined as a percentage of viable cells following treatment compared to the untreated control cells.

| Compound | pEC50 [1] | pEC50 (Table 5, direct comparison Z=N with corresponding analogs Z=C, 11 EC50) | pEC50 (Homo sapiens, RS4-11, Table 5, direct comparison Z=N with corresponding analogs Z=C, 11 EC50) |
| --- | --- | --- | --- |
| CC1(C)CCC(CN2CCN(c3ccc(C(=O)NS(=O)(=O)c4ccc5ccccc5c4)c(Oc4cnc5[nH]ccc5c4)c3)CC2)=C(c2ccc(Cl)cc2)C1 [Example 14, 4-(4-{[2-(4-chlorophenyl)-4,4-dimethylcyclohex-1-en-1-yl]methyl}piperazin-1-yl)-N-(2-naphthylsulfonyl)-2-(1H-pyrrolo[2,3-b]pyridin-5-yloxy)benzamide] | 5.41 |  |  |
| 4-{4-[(4′-chloro-1,1′-biphenyl-2-yl)methyl]piperazin-1-yl}-2-(1H-indol-5-yloxy)-N-({3-nitro-4-[(tetrahydro-2H-pyran-4-ylmethyl)amino]phenyl}sulfonyl) benzamide [Example 87] |  | 5.93 |  |
| COC1(COc2ccc(S(=O)(=O)NC(=O)c3ccc(N4CCN(CC5=C(c6ccc(Cl)cc6)CC(C)(C)CC5)CC4)cc3Oc3cnc4[nH]ccc4c3)cc2[N+](=O)[O-])CCOCC1 [Example 234, 4-(4-{[2-(4-chlorophenyl)-4,4-dimethylcyclohex-1-en-1-yl]methyl}piperazin-1-yl)-N-({4-[(4-methoxytetrahydro-2H-pyran-4-yl)methoxy]-3-nitrophenyl}sulfonyl)-2-(1H-pyrrolo[2,3-b]pyridin-5-yloxy)benzamide] | 6.87 |  |  |
| CC1(C)CCC(CN2CCN(c3ccc(C(=O)NS(=O)(=O)c4cnc(N[C@@H]5CCN(C(CF)CF)C5)c(Cl)c4)c(Oc4cnc5[nH]ccc5c4)c3)CC2)=C(c2ccc(Cl)cc2)C1 [Example 231, N-[(5-chloro-6-{[(3R)-1-(1,3-difluoropropan-2-yl)pyrrolidin-3-yl]amino}pyridin-3-yl)sulfonyl]-4-(4-{[2-(4-chlorophenyl)-4,4-dimethylcyclohex-1-en-1-yl]methyl}piperazin-1-yl)-2-(1H-pyrrolo[2,3-b]pyridin-5-yloxy)benzamide] | 6.28 |  |  |
| CC1(C)CCC(CN2CCN(c3ccc(C(=O)NS(=O)(=O)c4ccc(N[C@@H]5CCN(C6CCOCC6)C5)c([N+](=O)[O-])c4)c(Oc4cnc5[nH]ccc5c4)c3)CC2)=C(c2ccc(Cl)cc2)C1 [Example 130, 4-(4-{[2-(4-chlorophenyl)-4,4-dimethylcyclohex-1-en-1-yl]methyl}piperazin-1-yl)-N-[(3-nitro-4-{[(3R)-1-tetrahydro-2H-pyran-4-ylpyrrolidin-3-yl]amino}phenyl)sulfonyl]-2-(1H-pyrrolo[2,3-b]pyridin-5-yloxy)benzamide] | 7.98 |  |  |
| CC1(C)CCC(CN2CCN(c3ccc(C(=O)NS(=O)(=O)c4ccc(NC[C@@H]5CCCOC5)c([N+](=O)[O-])c4)c(Oc4cnc5[nH]ccc5c4)c3)CC2)=C(c2ccc(Cl)cc2)C1 [Example 11, 4-(4-{[2-(4-chlorophenyl)-4,4-dimethylcyclohex-1-en-1-yl]methyl}piperazin-1-yl)-N-[(3-nitro-4-{[(3S)-tetrahydro-2H-pyran-3-ylmethyl]amino}phenyl)sulfonyl]-2-(1H-pyrrolo[2,3-b]pyridin-5-yloxy)benzamide] | 7.86 |  | 7.85 |
| CC1(C)CCC(CN2CCN(c3ccc(C(=O)NS(=O)(=O)c4ccc(N[C@H]5CC[C@H](N6CCN(C7CCOCC7)CC6)CC5)c([N+](=O)[O-])c4)c(Oc4cnc5[nH]ccc5c4)c3)CC2)=C(c2ccc(Cl)cc2)C1 [Example 128, Trans-4-(4-{[2-(4-chlorophenyl)-4,4-dimethylcyclohex-1-en-1-yl]methyl}piperazin-1-yl)-N-[(3-nitro-4-{[4-(4-tetrahydro-2H-pyran-4-ylpiperazin-1-yl)cyclohexyl]amino}phenyl)sulfonyl]-2-(1H-pyrrolo[2,3-b]pyridin-5-yloxy)benzamide] | 8.23 |  |  |
| O=C(NS(=O)(=O)c1ccc(NCC2CCOCC2)c([N+](=O)[O-])c1)c1ccc(N2CCN(CC3=C(c4ccc(Cl)cc4)CCC(CF)(CF)C3)CC2)cc1Oc1cnc2[nH]ccc2c1 [Example 353, 4-(4-{[2-(4-chlorophenyl)-5,5-bis(fluoromethyl)cyclohex-1-en-1-yl]methyl}piperazin-1-yl)-N-({3-nitro-4-[(tetrahydro-2H-pyran-4-ylmethyl)amino]phenyl}sulfonyl)-2-(1H-pyrrolo[2,3-b]pyridin-5-yloxy)benzamide] | 8.30 |  |  |
| CC1(C)CCC(CN2CCN(c3ccc(C(=O)NS(=O)(=O)c4ccc(OCC5(F)CCN(S(C)(=O)=O)CC5)c([N+](=O)[O-])c4)c(Oc4cnc5[nH]ccc5c4)c3)CC2)=C(c2ccc(Cl)cc2)C1 [Example 194, 4-(4-{[2-(4-chlorophenyl)-4,4-dimethylcyclohex-1-en-1-yl]methyl}piperazin-1-yl)-N-[(4-{[4-fluoro-1-(methylsulfonyl)piperidin-4-yl]methoxy}-3-nitrophenyl)sulfonyl]-2-(1H-pyrrolo[2,3-b]pyridin-5-yloxy)benzamide] | 8.09 |  |  |
| CC1(C)CCC(CN2CCN(c3ccc(C(=O)NS(=O)(=O)c4ccc(N[C@H]5CC[C@@H](NC6CC6)CC5)c([N+](=O)[O-])c4)c(Oc4cnc5[nH]ccc5c4)c3)CC2)=C(c2ccc(Cl)cc2)C1 [Example 122, Cis-4-(4-{[2-(4-chlorophenyl)-4,4-dimethylcyclohex-1-en-1-yl]methyl}piperazin-1-yl)-N-[(4-{[4-(cyclopropylamino)cyclohexyl]amino}-3-nitrophenyl)sulfonyl]-2-(1H-pyrrolo[2,3-b]pyridin-5-yloxy)benzamide] | 8.73 |  |  |
| CC1(C)CCC(CN2CCN(c3ccc(C(=O)NS(=O)(=O)c4ccc(NC[C@H]5CCN(C6CCOCC6)C5)c([N+](=O)[O-])c4)c(Oc4cnc5[nH]ccc5c4)c3)CC2)=C(c2ccc(Cl)cc2)C1 [Example 118, 4-(4-{[2-(4-chlorophenyl)-4,4-dimethylcyclohex-1-en-1-yl]methyl}piperazin-1-yl)-N-{[3-nitro-4-({[(3R)-1-tetrahydro-2H-pyran-4-ylpyrrolidin-3-yl]methyl}amino)phenyl]sulfonyl}-2-(1H-pyrrolo[2,3-b]pyridin-5-yloxy)benzamide] | 7.89 |  |  |
| CC1(C)CCC(CN2CCN(c3ccc(C(=O)NS(=O)(=O)c4ccc(NCC5CCN(C(CF)CF)CC5)c([N+](=O)[O-])c4)c(Oc4cnc5[nH]ccc5c4)c3)CC2)=C(c2ccc(Cl)cc2)C1 [Example 172, 4-(4-{[2-(4-chlorophenyl)-4,4-dimethylcyclohex-1-en-1-yl]methyl}piperazin-1-yl)-N-({4-[({1-[2-fluoro-1-(fluoromethyl)ethyl]piperidin-4-yl}methyl)amino]-3-nitrophenyl}sulfonyl)-2-(1H-pyrrolo[2,3-b]pyridin-5-yloxy)benzamide] | 7.69 |  |  |
| CC1(C)CCC(CN2CCN(c3ccc(C(=O)NS(=O)(=O)c4ccc(NCC5CN(C(CF)CF)C5)c([N+](=O)[O-])c4)c(Oc4cnc5[nH]ccc5c4)c3)CC2)=C(c2ccc(Cl)cc2)C1 [Example 161, 4-(4-{[2-(4-chlorophenyl)-4,4-dimethylcyclohex-1-en-1-yl]methyl}piperazin-1-yl)-N-({4-[({1-[2-fluoro-1-(fluoromethyl)ethyl]azetidin-3-yl}methyl)amino]-3-nitrophenyl}sulfonyl)-2-(1H-pyrrolo[2,3-b]pyridin-5-yloxy)benzamide] | 7.46 |  |  |
| CN(C)CC(=O)N1CCO[C@H](CNc2ccc(S(=O)(=O)NC(=O)c3ccc(N4CCN(CC5=C(c6ccc(Cl)cc6)CC(C)(C)CC5)CC4)cc3Oc3cnc4[nH]ccc4c3)cc2[N+](=O)[O-])C1 [Example 258, 4-(4-{[2-(4-chlorophenyl)-4,4-dimethylcyclohex-1-en-1-yl]methyl}piperazin-1-yl)-N-{[4-({[(2R)-4-(N,N-dimethylglycyl)morpholin-2-yl]methyl}amino)-3-nitrophenyl]sulfonyl}-2-(1H-pyrrolo[2,3-b]pyridin-5-yloxy)benzamide] | 9.26 |  |  |
